Data as given in US20250041313A1, “COMBINATION THERAPY FOR TREATMENT OF CANCER” (CITY OF HOPE, priority 2023, published 2025).

Legend:
DMS273 cells = assay: CCK-8 cytotoxicity assay, 72 h; format: cell-based; details: Homo sapiens, DMS-273
From the text: (§1) We have determined cell cytotoxicity toward a specific drug, employing Cell Counting Kit-8 (Dojindo Molecular Technologies, Rockville, MD) as previously described (15).
(§2) The expression levels of DRP1 and DHODH in SCLC lines were compared with non-malignant BEAS 2B cells. Elevated levels of DRP1 and pDRP1 at Ser^616 were detected in all tested SCLC cells. Higher expression of DHODH was also observed in all seven SCLC cell lines (FIG. 1C). Previous studies have shown that Leflu and its active metabolite Teri regulate mitochondrial morphology (9,10,26). To find the effects of these two drugs on DRP1, AA docking (27) method was used to search for the best binding pocket for inhibitor binding. […] Leflu has a medium docking score of −5.6 kcal/mol. […] In vitro cytotoxicity effect of Teri and Leflu was tested in a panel of SCLC cell lines. Ten SCLC cell lines were treated with increasing concentrations of each drug for 72 h. […] In contrast, IC50 doses were much higher for Leflu. Upon oral administration of Leflu, over 80% of the drug is converted to Teri (28), indicating a potential reason for higher sensitivity to Teri. Two cell lines, SBC3 and SBC5, with IC50 2 μM and 30 μM, respectively, for Teri were used for additional experiments. […] The inhibitory effect was higher with Teri in both cell lines (FIG. 2A).

DMS114 cells = assay: CCK-8 cytotoxicity assay, 72 h; format: cell-based; details: Homo sapiens, DMS-114
From the text: as §1, §2

H69 cells = assay: CCK-8 cytotoxicity assay, 72 h; format: cell-based; details: Homo sapiens, NCI-H69
From the text: as §1, §2

H524 cells = assay: CCK-8 cytotoxicity assay, 72 h; format: cell-based; details: Homo sapiens, NCI-H524
From the text: as §1, §2

H526 cells = assay: CCK-8 cytotoxicity assay, 72 h; format: cell-based; details: Homo sapiens, NCI-H526
From the text: as §1, §2

H82 cells = assay: CCK-8 cytotoxicity assay, 72 h; format: cell-based; details: Homo sapiens, NCI-H82
From the text: as §1, §2

H345 cells = assay: CCK-8 cytotoxicity assay, 72 h; format: cell-based; details: Homo sapiens, NCI-H345
From the text: as §1, §2

H146 cells = assay: CCK-8 cytotoxicity assay, 72 h; format: cell-based; details: Homo sapiens, NCI-H146
From the text: as §1, §2

SBC3 xenograft = assay: SBC3 mouse xenograft, Lur/Leflu study; format: in vivo; details: for tumor weight at end of study: Lur 0.5 mg/kg, Leflu 3.8 mg/kg, i.p. twice a week; for reduction in tumor size/weight: vs control
Description: Athymic nude nu/nu mice were obtained from Charles River, Wilmington, MA, and were acclimated for a week before beginning the experiment. All animal experiments were carried out in accordance with a protocol approved by the Institutional Animal Care and Use Committee COH (IACUC #16004). For treatments, mice were divided into 4 groups with five mice per group and subcutaneously injected into one flank with 2×10^6 SBC3 or SBC5 cells suspensions in 100 μl of PBS. Treatment started on the 14th day when tumors became palpable. Two in vivo studies were done in this project. SBC3 and SBC 5 xenograft with i) vehicle control, ii) […] 50 mg/kg, iii) Leflu 7.5 mg/kg, and iv) […]/Leflu. SBC3 with i) vehicle control, ii) Lur 0.5 mg/kg, iii) Leflu 3.8 mg/kg, and iv) Lur/Leflu. Treatments were given to mice via i.p. twice a week for 6 weeks. Animals were examined daily for signs of tumor growth. Tumors were measured in two dimensions using calipers and body weights were recorded. Animals were photographed on days 1, 5, 10, 15, 20, 25, 30, 35, and 40 after treatment. Tumors were removed on day 40 and photographed. At the end of the study, the mice were euthanized by CO2 asphyxiation followed by cervical dislocation. The tumor weights were compared between groups using an unpaired Student's t-test. A portion of the tumor was fixed in 10% buffered formaldehyde solution and paraffin-embedded for immuno-staining. FFPE tumor sections were stained with pDRP Ser^616 antibody. Tumor sections were deparaffinized and rehydrated, followed by heat-mediated antigen retrieval (pH 6, Dako). After permeabilization and blocking, tumor sections were stained with pDRP1 Ser^616 antibody overnight, washed and incubated with Alexa 488 secondary antibody for one hour, mounted and observed on an LSM 880 with a 10×/0.45 NA objective (Carl Zeiss). Immunofluorescent confocal images were acquired for each treatment (magnification:100×). Mean immunofluorescence intensities were calculated with ZEN 2.3 Lite software.

H446 spheroids = assay: Imaris mitochondrial morphology in spheroids; format: cell-based, human; details: Teri 1600 nM, Teri/Lur 800, 1600 nM/pM
Description: Spheroids were transferred to low cell attachment dishes, grown for two days, and treated with drug. After treatment, spheroid samples were run with Western blot assay. For spheroid mitochondria visualization, they were stained with 250 nM MitoTracker® Red CMXRos and Hoechst from ThermoFisher Scientific (Waltham, MA) for 2 h after drug treatment. Spheroids were washed, fixated with 4% PFA, transferred into 96-well flat glass-bottom black microplate (Cellvis, Mountain View, CA), and mounted in wells. […] Z-stacks were acquired in Airyscan Fast mode with a 2.0 μm interval and optical zoom of 2.0. […] In Airyscan Fast mode excitation was provided by 405 nm (1.0%) and 561 nm (1.0%) lasers with gain and detection wavelengths: DAPI […] (450 nm) and Red […] (579 nm). 2D images were acquired with a 20×/0.8 NA Plan-Apochromat objective and captured with PMT detectors. […] Roundness ratios were calculated from Surface generated Bounding Box 00 Length measurements. Object lengths less than 0.1 μm were excluded, and lengths greater than 1.26 μm were separately analyzed as clusters. […] The Cells module was used to detect and quantify mitochondria and nucleus area from cell monolayers. […] Imaris includes nuclei in cytoplasm measurements, so mitochondrial area is calculated by subtracting nucleus area from cell cytoplasm area. […]

Row | Structure (SMILES) | IC50 (DMS273 cells) | IC50 (DMS114 cells) | IC50 (H69 cells) | IC50 (H524 cells) | IC50 (H526 cells) | IC50 (H82 cells) | IC50 (H345 cells) | IC50 (H146 cells) | tumor weight at end of study (SBC3 xenograft) | reduction in tumor size/weight (SBC3 xenograft) | Percentages of round/fragmentated mitochondria (H446 spheroids)
1 | Cc1oncc1C(=O)Nc1ccc(C(F)(F)F)cc1 [Leflunomide, leflunomide] | > 152 µM | > 152 µM | > 152 µM | 133 µM | 48.3 µM | 103 µM | > 152 µM | 152 µM | 1.39 ± 0.12 g | ~22% | –
2 | C/C(O)=C(\C#N)C(=O)Nc1ccc(C(F)(F)F)cc1 [Teriflunomide, teriflunomide] | 43.7 µM | 12.6 µM | 17.1 µM | 10.8 µM | 7.6 µM | 7.2 µM | > 43.7 µM | 8.6 µM | – | – | significantly decreased
3 | COc1ccc2[nH]c3c(c2c1)CCN[C@]31CS[C@@H]2c3c(OC(C)=O)c(C)c4c(c3[C@H](COC1=O)N1[C@@H]2[C@H]2c3c(cc(C)c(OC)c3O)C[C@@H]([C@@H]1O)N2C)OCO4 [Lurbinectedin, lurbinectedin] | – | – | – | – | – | – | – | – | 1.09 ± 0.11 g | ~39% | significantly decreased
